Source: US20220145406A1, “BIOMARKERS, AND USES IN TREATMENT OF VIRAL INFECTIONS, INFLAMMATIONS, OR CANCER” (ABIVAX, priority 2018, published 2022)
Several values for one entry are separate records, joined by “and”; a condition that tells them apart may be missing. Equal values may be shown once.

Tests used:
[1] = tested on: miR-124 (miR-124-1, miR-124-2, miR-124-3 loci); test: RNA CaptureSeq read counts at the miR-124 loci in PBMCs; format: cell-based, human; settings: PBMCs treated with ABX464
Protocol: (§1) Total RNA was extracted from infected and uninfected PBMC samples using TRIzol reagent (Invitrogen) following the manufacturer's protocol. The RNA concentrations and purity were determined using the RNA 6000 Bioanalyzer kit (Agilent). For cDNA synthesis, 1 μg of total RNA was treated with DNase I (Invitrogen) and then utilized as a template for reverse transcription using the Verso cDNA kit with a blend of random hexamers and anchored oligo-dT (Thermo Scientific), according to the manufacturer's instructions. After KAPA Hyper Prep (ROCHE) library preparation from 1 μg total RNA, we proceeded with SeqCap EZ capture (ROCHE) following the manufacturer's recommendations. Hybrid selection was performed with a custom SeqCap EZ Choice Library (Roche NimbleGen) containing the following regions; chromosome 8 (9,760,617 to 9,761,780 and 65,285,285 to 65,296,944). chromosome 20 (61,797,549 to 61,812,855), chromosome 1 (1,102,000 to 1,106,000), chromosome 13 (92,000,074 to 92,006,833), chromosome 15 (22,512,831 to […]) and the genome of the HIV Ada8 strain. This library was designed through the NimbleDesign portal (v1.2.R1) using genome build hg19 NCBI Build 37.1/GRCh37. Sequencing was performed on a NextSeq 500 (Illumina) with 18 samples on a HighOutput Cartridge (2×400 million reads of 75 bases each).
miR-124 is encoded from three independent genes, miR-124-1, miR-124-2, and miR-124-3, located on human chromosomes 8 and 20 (FIG. 4A). To determine which of these genes is induced by ABX464, we employed targeted RNA CaptureSeq to assess the full depth of the transcriptome. […] The total number of reads for untreated as well as ABX464 treated samples varied between 2 and 30 million in infected and uninfected PBMCs (Table V). The number of reads from the three loci encoding miR-124 in the treated samples were 4- to 12-fold higher than in the untreated samples (FIG. 4B, Table V), confirming that ABX464 led to a large increase in miR-124. […]

miR-429 = test: RNA CaptureSeq read counts at the control locus miR-429; format: cell-based, human; settings: PBMCs; control locus outside the miR-124 region
Protocol: Total RNA was extracted from infected and uninfected PBMC samples using TRIzol reagent (Invitrogen) following the manufacturer's protocol. The RNA concentrations and purity were determined using the RNA 6000 Bioanalyzer kit (Agilent). For cDNA synthesis, 1 μg of total RNA was treated with DNase I (Invitrogen) and then utilized as a template for reverse transcription using the Verso cDNA kit with a blend of random hexamers and anchored oligo-dT (Thermo Scientific), according to the manufacturer's instructions. After KAPA Hyper Prep (ROCHE) library preparation from 1 μg total RNA, we proceeded with SeqCap EZ capture (ROCHE) following the manufacturer's recommendations. […] Sequencing was performed on a NextSeq 500 (Illumina) with 18 samples on a HighOutput Cartridge (2×400 million reads of 75 bases each).
miR-124 is encoded from three independent genes, miR-124-1, miR-124-2, and miR-124-3, located on human chromosomes 8 and 20 (FIG. 4A). […] The total number of reads for untreated as well as ABX464 treated samples varied between 2 and 30 million in infected and uninfected PBMCs (Table V). The number of reads from the three loci encoding miR-124 in the treated samples were 4- to 12-fold higher than in the untreated samples (FIG. 4B, Table V), confirming that ABX464 led to a large increase in miR-124. […]

HIV RNA = test: RNA CaptureSeq of HIV RNA splicing in infected PBMCs; format: cell-based, HIV-1
Protocol: as §1
To profile viral transcriptional events modulated by ABX464 and thereby assess the full depth of the HIV transcriptome, we employed a recently described targeted RNA capture and sequencing strategy (RNA CaptureSeq). This strategy involves the construction of tiling arrays across the HIV genome, against which cDNAs are hybridized, eluted and sequenced. RNA CaptureSeq is similar to previous in-solution capture methods and exome sequencing approaches, but when combined with deep-sequencing technology, provides saturating coverage and permits the robust assembly of rare and unannotated HIV transcripts.
PBMCs from 6 HIV-negative donors were infected with the YU-2 strain, followed by treatment with ABX464. […] After cDNA capture from infected cells that were untreated or treated with ABX464, libraries were prepared and sequenced using an Illumina sequencing facility. To highlight potential new splicing events induced by ABX464, we used a custom bioinformatics pipeline with the main step involving the assembly of putative transcripts from targeted RNA sequencing reads to construct contigs (Illumina paired-end 2×75 bp) (FIGS. 6 A and B). The putative transcripts (contigs) were then mapped to the HIV genome. The HIV profiling datasets used in our analysis yielded high sequence coverage (2 to 30 million reads for the 9 kb genome), allowing deep quantification of HIV splice variants.
To test whether enhanced splicing by ABX464 generates new viral RNA variants, the splicing events were filtered and analyzed. After mapping the contigs to the genome of the YU-2 strain, the latter was used as an anchor for additional clustering and assembly of new HIV transcripts. The partial gene structures generated by the spliced alignment were merged whenever they shared consecutive splicing sites spanning an intronic viral sequence. The superstructures so formed correspond to all possible HIV gene structures for which each complete exon is supported by at least one of the alignments. At the HIV transcript level, this led to the formation of superassemblies, where each superassembly is a merge of initial contigs matching a predicted superstructure. […] FIG. 1C and Table III present the distribution of the number of contigs that were merged to form one superassembly for each donor. […]

[2] = PBMCs infected with YU2, treated with ABX464, one value per donor library

FC(F)(F)Oc1ccc(Nc2ccc3cccc(Cl)c3n2)cc1 [ABX464, 8-chloro-N-(4-(trifluoromethoxy)phenyl)quinolin-2-amine]
read counts mir124.2 ([1]; one value per donor library): 704 and 4 and 4222 and 362 and 2326 and 5452
read counts mir124.3 ([1]; one value per donor library): 6439 and 701 and 21941 and 2542 and 14460 and 7772
read counts mir124.1 ([1]; one value per donor library (D1, D4-D8)): 4014 and 7114 and 4748 and 324 and 2486 and 1088
expression of miR-429 (miR-429): no effect
assembled contigs corresponding to spliced RNAs (HIV RNA; ABX464-treated PBMC samples infected with YU-2): 90%
contig counts spliced RNA transcripts Gag (HIV RNA; [2]): 18 and 42 and 25 and 13 and 19 and 26
contig counts spliced RNA transcripts Pol (HIV RNA; [2]): 67 and 61 and 17 and 14 and 12 and 35
contig counts spliced RNA transcripts Vif (HIV RNA; [2]): 32 and 34 and 15 and 16 and 12 and 25
contig counts spliced RNA transcripts env (HIV RNA; [2]): 59 and 42 (2×) and 37 and 13 and 35
contig counts spliced RNA transcripts rev (HIV RNA; [2]): 23 and 21 and 17 and 9 and 12 and 29
contig counts spliced RNA transcripts tat (HIV RNA; [2]): 16 and 18 (2×) and 19 and 15 and 24
contig counts spliced RNA transcripts vpr (HIV RNA; [2]): 14 (2×) and 9 and 12 (2×) and 11
contig counts spliced RNA transcripts vpu (HIV RNA; [2]): 7 and 5 and 13 and 11 (2×) and 17
contig counts Complete_mRNA (HIV RNA; PBMCs infected with YU2, treated with ABX464, one value per donor library (D1, D4-D8)): 11 and 13 and 6 (2×) and 32 and 15
